Values quoted from earlier work as cited in US7074553B2, “Retrovirus associated with myelodysplastic syndromes and uses thereof” (Rush University Medical Center, priority 2000, dated 2006).

B1: G-CSF: colony-stimulating growth factor designed to stimulate proliferation of hematopoietic progenitors (protein, UniProt P09919 31-207, looked up)
Granulocyte …: TPLGPASSLPQSFLLKCLEQVRKIQGDGAALQEKLVSECATYKLCHPEELVLLGHSLGIPWAPLSSCPSQALQLAGCLSQLHSGLFLYQGLLQALEGISPELGPTLDTLQLDVADFATTIWQQMEELGMAPALQPTQGAMPAFASAFQRRAGGVLVASHLQSFLEVSYRVLRHLAQP

System: anemia and thrombocytopenia of MDS patients
Conditions: administered as single agents

Row | Molecule | improvement of the anemia and the thrombocytopenia
1 | granulocyte-macrophage colony-stimulating factor [GM-CSF] | rarely improves
2 | B1 | rarely improves
